# Values of other authors in patent publication US20260048030A1, “REPARIXIN LIQUID SUSPENSIONS” (Dompe' Farmaceutici SPA, priority 2022, published 2026).
# Tested on: hospitalized patients with severe COVID-19 pneumonia
# Settings: phase 2
structure (smiles),measurement,value
"CC(C)Cc1ccc([C@@H](C)C(=O)NS(C)(=O)=O)cc1 [Reparixin, R-(−)-2-(4-isobutylphenyl)propionyl methansulfonamide]",Clinical outcomes compared with the standard of care,improved clinical outcomes
